Assay results: PubChem BioAssay AID520 (NMMLSC, 2006)
pKi: −log10 of the molar value. Activity calls are given as the source filed them. The rule behind the calls is not given here.

Biological target: N-formyl peptide receptor 2 (Homo sapiens) (UniProt P25090)
Assay: concentration-dependent FPRL1 ligand displacement – cell-based, FPR counter-screen, fluorescent ligand, dose response (AID 520)
Settings: FPRL1-expressing cells, fluorescent ligand binding inhibition; for pKi: measured here: FPRL1 binding Ki

N-formyl peptide receptor 2 (Homo sapiens), sequence (P25090 whole entry, looked up): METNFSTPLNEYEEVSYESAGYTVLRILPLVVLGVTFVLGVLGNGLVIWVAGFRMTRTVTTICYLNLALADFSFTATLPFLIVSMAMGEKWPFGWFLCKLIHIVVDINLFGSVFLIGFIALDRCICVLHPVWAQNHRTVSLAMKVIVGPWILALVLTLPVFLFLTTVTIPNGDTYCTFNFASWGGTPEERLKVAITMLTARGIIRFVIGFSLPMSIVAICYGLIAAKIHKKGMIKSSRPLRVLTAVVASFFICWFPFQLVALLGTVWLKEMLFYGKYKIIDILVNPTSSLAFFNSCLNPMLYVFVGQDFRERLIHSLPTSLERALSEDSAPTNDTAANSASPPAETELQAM

SMILES	IC50	pKi
CCN(CC)c1ccc(C=N/C(C#N)=C(\N)C#N)cc1	> 66.7 µM (inactive)	< 4.39
CCOC(=O)c1oc2cc(O)ccc2c(=O)c1-c1ccccc1OC		< 4.39
Cc1ccc(NC(=O)C2C(=O)N(CCO)C3(C)CC2c2ccccc2O3)cc1 (configuration not stated)		< 4.39
O=C(C1=C(O)C(=O)N(CCc2ccccc2)C1c1cccnc1)c1ccco1 (configuration not stated)	> 66.7 µM (inactive)	< 4.39
O=C(O)CC1Oc2ccc(Cl)cc2NC1=O (configuration not stated)		< 4.39
Cc1ccc(C2C3=C(CC(C)(C)CC3=O)Nc3[nH]c(=S)[nH]c(=O)c32)cc1 (configuration not stated)	> 66.7 µM (inactive)	< 4.39
Cc1[nH]n2c(=O)c3c(nc2c1-c1cccc2ccccc12)CCC3		< 4.39
Cc1ccc(/C(O)=C2\C(=O)C(=O)N(c3cc(C)on3)C2c2cccc(Br)c2)cc1 (configuration not stated)	> 66.7 µM (inactive)	< 4.39
CCOC(=O)c1c(-c2ccc(-c3ccccc3)cc2)csc1NC(=O)C1C2CCC(O2)C1C(=O)O (configuration not stated)		< 4.39
Cc1ccc(C(=O)C2=C(O)C(=O)N(Cc3ccccc3)C2c2cccnc2)o1 (configuration not stated)	> 66.7 µM (inactive)	< 4.39
CC1=C(C#N)C(c2ccc3ncccc3c2)C(C#N)=C(C)N1	> 66.7 µM (inactive)	< 4.39
CC(C)OC(=O)c1nnn(-c2nonc2N)c1CN1CCc2ccccc2C1		< 4.39
Cc1cccc(OCC(=O)Nc2cc(C)ccc2O)c1		< 4.39
O=C(NC1CCCC1)c1sc(=S)n2c1[nH]c(=O)c1ccccc12		< 4.39
C/C(=C1/SC(N2CCCC2)=NC1=O)c1ccc(Br)cc1	> 66.7 µM (inactive)	< 4.39
CC(C)OC(=O)c1cc(NC(=O)C2C3CCC(O3)C2C(=O)O)cc(C(=O)OC(C)C)c1 (configuration not stated)		< 4.39
O=c1cc(N2CCc3ccccc32)[nH]c(=O)n1Cc1ccc(F)cc1		< 4.39
COc1ccc(S(=O)(=O)NC(C)C(=O)Nc2cccc(C(C)=O)c2)cc1 (configuration not stated)		< 4.39

SMILES	IC50	pKi
COC(=O)COc1ccc2c(=O)c(Oc3ccccc3)c(C)oc2c1		< 4.39
COc1ccc(-c2cc(C(F)(F)F)nc(NC3CCCC3)n2)cc1OC		< 4.39
CC1CCN(S(=O)(=O)c2ccc3c(c2)oc(=O)n3CC(=O)NCc2ccc3c(c2)OCO3)CC1		< 4.39
COc1ccccc1NC(=O)CSc1nnc(Cn2nnc(-c3ccccc3)n2)n1-c1ccccc1		< 4.39
Fc1ccc(-c2nnc3ccc(N4CCCC4)nn23)cc1		< 4.39
CC1(C)S[C@@H]2[C@H](NC(=O)Cc3ccccc3)C(=O)N2[C@H]1C(=O)O		< 4.39
CCOC(=O)c1ccc(NC(=O)Nc2ccc3c4c(cccc24)C(=O)N3CC)cc1		< 4.39
COc1ccc(-c2c(C)oc3c(CN4CCN(CCO)CC4)c(O)ccc3c2=O)cc1OC		< 4.39
COc1ccc(-c2cc(C(F)(F)F)nc(N3CCCCC3)n2)cc1OC		< 4.39
O=C(NCc1cccnc1)C1c2ccccc2C(=O)N1C1CCCCCCC1 (configuration not stated)		< 4.39
COc1ccc(CCN2C(=O)C(O)=C(C(=O)c3ccco3)C2c2cccs2)cc1OC (configuration not stated)	> 66.7 µM (inactive)	< 4.39
COc1ccc(OC)c(NC(=O)C2C3CCC(C3=C(C)C)C2C(=O)O)c1 (configuration not stated)		< 4.39
COc1ccc(NC(=O)C2C(=O)NC3(C)CC2c2ccccc2O3)cc1 (configuration not stated)		< 4.39
O=C(C1=C(O)C(=O)N(c2ncccn2)C1c1ccc(Cl)c(Cl)c1)c1ccco1 (configuration not stated)	> 66.7 µM (inactive)	< 4.39
COc1ccc(-c2nnc(Nc3nc4c(OC)cccc4s3)o2)cc1		< 4.39
O=C(C1=C(O)C(=O)N(CCN2CCOCC2)C1c1ccccc1)c1cccs1 (configuration not stated)	> 66.7 µM (inactive)	< 4.39
COc1ccc(CN(C(=O)c2ccccc2OC)C2CCS(=O)(=O)C2)cc1 (configuration not stated)		< 4.39
CC(=O)OCCNc1cc(N2CCN(C)CC2)c2noc3c2c1C(=O)c1ccccc1-3		5.38

Second part, the molecule after the results:

IC50	pKi	SMILES
> 66.7 µM (inactive)	< 4.39	C=CCN1C(=O)C2(/C(=C(\O)c3ccc4c(c3)OCCO4)C(=O)C(=O)N2CCCOC)c2ccccc21 (configuration not stated)
	< 4.39	Cc1cc(SCC(N)=O)nc(SCC(=O)c2ccccc2)n1
	4.52	CCOC(=O)N1CCN(c2cc(NCCC(=O)O)c3c4c(onc24)-c2ccccc2C3=O)CC1
	4.57	COc1ccc(-c2cn3cccnc3n2)cc1NC(=O)CC(C)C
	< 4.39	COc1cccc(-c2nc(CS(=O)(=O)CC(=O)NCCC(C)C)c(C)o2)c1
> 66.7 µM (inactive)	< 4.39	COCCCN1C(=O)C(=O)/C(=C(/O)c2ccc3c(c2)CC(C)O3)C1c1cccnc1 (configuration not stated)
> 66.7 µM (inactive)	< 4.39	Cc1cc(N2C(=O)C(O)=C(C(=O)c3ccco3)C2c2cccnc2)no1 (configuration not stated)
	< 4.39	CCN1C(=O)/C(=C2\SC(=S)N(CCCOC)C2=O)c2ccccc21
> 66.7 µM (inactive)	< 4.39	CCOc1cccc(/C(O)=C2/C(=O)C(=O)N(Cc3cccnc3)C2c2ccco2)c1 (configuration not stated)
> 66.7 µM (inactive)	< 4.39	CCCCC1C(=O)N(c2ccccc2)N(c2ccccc2)C1=O
> 66.7 µM (inactive)	< 4.39	C=CCOc1cccc(C2C(C(=O)c3ccco3)=C(O)C(=O)N2CCN2CCOCC2)c1 (configuration not stated)
> 66.7 µM (inactive)	< 4.39	O=C(C1=C(O)C(=O)N(CC2CCCO2)C1c1cccnc1)c1ccco1 (configuration not stated)
	< 4.39	CCc1c(C)nc2c(C#N)c(C)[nH]n2c1=O
	< 4.39	CCOC(=O)Nc1ccc(OC)cc1S(=O)(=O)N1CCCCC1
> 66.7 µM (inactive)	< 4.39	COc1ccc(OC)c(C2C(C(=O)c3ccco3)=C(O)C(=O)N2CCCN2CCOCC2)c1 (configuration not stated)
	< 4.39	C=CCn1c(SCCCC)nc(O)cc1=O
	< 4.39	CCCc1cc(=O)n2[nH]c(C)c(-c3ccccc3)c2n1

IC50	pKi	SMILES
> 66.7 µM (inactive)	< 4.39	Cc1ccc(C2C(C(=O)c3sc(C)nc3C)=C(O)C(=O)N2CCN2CCOCC2)o1 (configuration not stated)
	< 4.39	COCCN1Cc2cccc(C(=O)NCc3ccc4c(c3)OCO4)c2C1=O
	< 4.39	COc1ccc(OC)c(C(=O)c2nc3c(n2O)CCCCC3)c1
	< 4.39	CN1C(=O)/C(=C2\SC(=S)N(C(CCC(=O)O)C(=O)O)C2=O)c2ccccc21 (configuration not stated)
	< 4.39	CCC(CCC(=O)Nc1cccc(C(=O)O)c1)C(=O)O (configuration not stated)
	< 4.39	CCC(=O)Nc1c(C#N)c2nc3ccccc3nc2n1-c1ccccc1C
	< 4.39	CCOC(=O)c1c(NC(=O)c2cc(C3CC3)on2)sc2c1CCCC2
	< 4.39	CCCCCNC(=O)c1ccc2c(=O)[nH]c3c(C(=O)NCC4CCCO4)sc(=S)n3c2c1 (configuration not stated)
> 66.7 µM (inactive)	< 4.39	CCOc1ccc(C2C(C(=O)c3ccco3)=C(O)C(=O)N2CCCn2ccnc2)cc1 (configuration not stated)
> 66.7 µM (inactive)	< 4.39	Cc1ccc(C)c(/C(O)=C2\C(=O)C(=O)N(CCCn3ccnc3)C2c2ccncc2)c1 (configuration not stated)
> 66.7 µM (inactive)	< 4.39	COCCN1C(=O)C(O)=C(C(=O)c2ccco2)C1c1cccc(Oc2ccccc2)c1 (configuration not stated)
	< 4.39	COc1ccc(Cl)cc1-n1c(=S)sc2c(=O)[nH]c(SCC(=O)NCC3CCCO3)nc21 (configuration not stated)
	< 4.39	CC(=O)SCC(=O)N=c1sc2cc(F)ccc2n1C
	< 4.39	CN1CCN(CCCNC(=O)Nc2cccc3ccccc23)CC1
	< 4.39	Cc1nc2c(C#N)c(C)[nH]n2c(=O)c1Cc1ccccc1
	< 4.39	COc1ccc(-n2c(Cc3cccn3C)nnc2SCC(=O)Nc2ccc(Cl)cc2)cc1
	< 4.39	CCCC(=O)Nc1c2c(nn1-c1ccc(OC)cc1)CS(=O)C2 (configuration not stated)
